Data as given in patent US10052320B2, “Substituted quinoxalines as FGFR kinase inhibitors” (ASTEX THERAPEUTICS LIMITED, priority 2011, dated 2018).

Legend:
[1] = molecular target: T1, Ba/F3-Flt3-transfected cells (Homo sapiens, UniProt P36888, cells depend on it, form not given); experiment: Ba/F3-Flt3 (minus IL3) cellular proliferation assay, Alamar Blue; assay type: cell-based; conditions: minus IL3
T1 sequence (P36888 1-993): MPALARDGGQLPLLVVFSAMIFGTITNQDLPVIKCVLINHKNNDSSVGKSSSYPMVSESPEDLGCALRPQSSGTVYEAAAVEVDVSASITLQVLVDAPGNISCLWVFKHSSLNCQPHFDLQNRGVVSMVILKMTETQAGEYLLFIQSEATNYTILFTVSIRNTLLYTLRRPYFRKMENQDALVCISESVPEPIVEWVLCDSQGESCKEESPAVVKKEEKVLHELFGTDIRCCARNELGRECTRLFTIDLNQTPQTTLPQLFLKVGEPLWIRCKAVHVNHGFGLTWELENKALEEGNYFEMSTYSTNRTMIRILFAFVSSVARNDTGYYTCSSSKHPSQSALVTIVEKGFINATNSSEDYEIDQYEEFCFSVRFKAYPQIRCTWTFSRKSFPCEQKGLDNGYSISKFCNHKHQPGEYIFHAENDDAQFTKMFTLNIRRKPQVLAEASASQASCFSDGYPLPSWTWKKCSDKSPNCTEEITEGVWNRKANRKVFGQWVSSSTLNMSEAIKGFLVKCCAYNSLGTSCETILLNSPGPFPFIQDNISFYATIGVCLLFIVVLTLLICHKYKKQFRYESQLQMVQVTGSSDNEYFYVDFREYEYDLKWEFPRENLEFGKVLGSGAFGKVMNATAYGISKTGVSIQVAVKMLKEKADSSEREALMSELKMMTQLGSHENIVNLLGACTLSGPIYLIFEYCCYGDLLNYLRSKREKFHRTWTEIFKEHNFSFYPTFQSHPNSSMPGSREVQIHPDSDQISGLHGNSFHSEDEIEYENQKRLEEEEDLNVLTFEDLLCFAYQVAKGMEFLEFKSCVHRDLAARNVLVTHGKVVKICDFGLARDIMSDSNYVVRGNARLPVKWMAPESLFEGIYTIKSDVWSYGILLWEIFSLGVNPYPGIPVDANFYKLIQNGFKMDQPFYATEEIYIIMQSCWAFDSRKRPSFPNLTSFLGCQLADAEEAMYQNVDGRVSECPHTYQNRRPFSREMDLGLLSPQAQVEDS

FGFR1 (h) = FGFR1 (h) (Homo sapiens, UniProt P11362); experiment: FGFR1 (enzymatic assay), TR-FRET; assay type: biochemical; conditions: read-out: FGFR 1 pIC50 (converted)
Procedure: In a final reaction volume of 30 μL, FGFR1 (h) (25 ng/ml) was incubated with 50 mM HEPES pH 7.5, 6 mM MnCl2, 1 mM DTT, 0.1 mM Na3VO4, 0.01% Triton-X-100, 500 nM Btn-Flt3 and 5 μM ATP in the presence of compound (1% DMSO final). […] Time-Resolved Fluorescence Resonance Energy Transfer (TR-FRET) signal (ex340 nm. Em 620 nm, em 655 nm) was measured afterwards and results are expressed in RFU (Relative Fluorescence Units).

[2] = molecular target: Ba/F3-FGFR1-transfected cells (Homo sapiens, UniProt P11362); experiment: Ba/F3-FGFR1 (minus IL3) cellular proliferation assay, Alamar Blue; assay type: cell-based; conditions: minus IL3, 384 well
Outline: (§1)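 24 h cmpd exposure, 37 °C/5% CO2; phenol red-free RPMI-1640, 10% FBS; 20000 cells/well (384) or 10000 cells/well (96); Alamar Blue (0.15 mM resazurin) 4 h; RFU ex 540/em 590.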

[3] = test system: Ba/F3-FGFR1-transfected cells in the presence of 10 ng/ml murine IL3; experiment: Ba/F3-FGFR1 (plus IL3) cellular proliferation counterscreen, Alamar Blue; assay type: cell-based; conditions: Mus musculus; plus IL3, 384 well; read-out: BAF3-FGFR 1 (PLUS IL3) 384 well pIC50 (converted)
Outline: as §1

FGFR1 (h), sequence (P11362 22-822): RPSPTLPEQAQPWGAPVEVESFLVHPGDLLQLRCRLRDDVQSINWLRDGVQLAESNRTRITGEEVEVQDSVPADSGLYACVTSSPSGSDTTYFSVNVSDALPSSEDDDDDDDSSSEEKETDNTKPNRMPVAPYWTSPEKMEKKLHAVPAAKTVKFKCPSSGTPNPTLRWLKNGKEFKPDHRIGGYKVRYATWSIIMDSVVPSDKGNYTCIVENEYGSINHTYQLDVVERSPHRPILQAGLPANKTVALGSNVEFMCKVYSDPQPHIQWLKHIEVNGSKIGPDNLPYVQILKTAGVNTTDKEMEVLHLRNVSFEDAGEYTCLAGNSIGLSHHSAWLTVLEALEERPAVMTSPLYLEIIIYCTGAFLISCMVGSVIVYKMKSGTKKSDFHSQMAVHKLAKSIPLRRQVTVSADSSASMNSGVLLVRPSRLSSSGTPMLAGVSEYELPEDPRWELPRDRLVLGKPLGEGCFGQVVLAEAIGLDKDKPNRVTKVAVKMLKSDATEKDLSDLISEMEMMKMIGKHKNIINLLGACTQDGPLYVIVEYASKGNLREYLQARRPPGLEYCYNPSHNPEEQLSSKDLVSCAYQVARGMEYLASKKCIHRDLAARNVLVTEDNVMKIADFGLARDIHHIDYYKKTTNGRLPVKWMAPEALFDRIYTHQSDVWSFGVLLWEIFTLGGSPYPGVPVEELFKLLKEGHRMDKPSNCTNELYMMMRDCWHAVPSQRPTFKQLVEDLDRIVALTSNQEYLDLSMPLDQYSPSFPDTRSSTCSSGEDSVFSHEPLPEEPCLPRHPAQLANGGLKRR
Ba/F3-FGFR1-transfected cells, sequence (P11362 whole entry, change not shown): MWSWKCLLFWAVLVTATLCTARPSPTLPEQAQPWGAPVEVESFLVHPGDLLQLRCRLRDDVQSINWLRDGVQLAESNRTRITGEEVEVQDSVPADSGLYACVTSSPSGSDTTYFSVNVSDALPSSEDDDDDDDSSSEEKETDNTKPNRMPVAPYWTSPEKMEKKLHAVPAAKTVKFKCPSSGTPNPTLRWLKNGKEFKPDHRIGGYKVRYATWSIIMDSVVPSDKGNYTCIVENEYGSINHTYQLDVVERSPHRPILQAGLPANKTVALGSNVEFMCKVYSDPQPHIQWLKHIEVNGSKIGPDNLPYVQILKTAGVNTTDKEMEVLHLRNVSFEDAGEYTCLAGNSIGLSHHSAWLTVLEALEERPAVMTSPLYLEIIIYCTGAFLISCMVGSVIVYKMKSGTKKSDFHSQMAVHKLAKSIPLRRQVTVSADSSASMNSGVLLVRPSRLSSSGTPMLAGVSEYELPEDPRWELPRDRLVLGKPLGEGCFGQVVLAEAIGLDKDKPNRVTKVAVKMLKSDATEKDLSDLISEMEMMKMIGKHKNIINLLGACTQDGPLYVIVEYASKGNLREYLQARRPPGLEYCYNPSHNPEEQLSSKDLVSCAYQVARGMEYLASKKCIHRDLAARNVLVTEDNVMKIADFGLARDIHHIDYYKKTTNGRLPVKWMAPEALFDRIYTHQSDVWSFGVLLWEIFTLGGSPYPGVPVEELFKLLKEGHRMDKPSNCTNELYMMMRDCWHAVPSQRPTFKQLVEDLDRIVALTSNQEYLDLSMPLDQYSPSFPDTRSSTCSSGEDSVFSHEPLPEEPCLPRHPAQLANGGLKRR

| SMILES | BAF3-FLT3 (MIN IL3) 384 well pIC50 [1] | IC50 (FGFR1 (h)) [nM] | BAF3-FGFR 1 (MIN IL3) 384 well pIC50 [2] | IC50 [3] [nM] |
| --- | --- | --- | --- | --- |
| COc1cc(OC)cc(N(CCO)c2ccc3ncc(-c4ccc(N5CCNCC5)nc4)nc3c2)c1 [Compound 165] | 5.38 | 3.89 | 6.56 | 6610 |
| COc1cc(OC)cc(N(CCNC(C)C)c2ccc3ncc(-n4cnc(COC(C)=O)c4)nc3c2)c1 [Compound 167] | <5 | 1.66 | 7.13 | > 10000 |
| COc1cc(OC)cc(N(CCNC(C)C)c2ccc3ncc(-c4ccc(N5CCOCC5)nc4)nc3c2)c1 [Compound 168] | 5.13 | 0.955 | 7.04 | 7760 |
| COC(=O)C1CCCN1c1cnc2ccc(N(CCO)c3cc(OC)cc(OC)c3)cc2n1 (stereo not shown) [Compound 172] | 5.19 | 107 | 6.6 | > 10000 |
| COc1cc(OC)cc(N(CCO)c2ccc3ncc(C4=CCN(C(=O)OC(C)(C)C)C4)nc3c2)c1 [Compound 173] | <5 | 29.5 | 5.68 | > 10000 |
| COc1cc(OC)cc(N(CCO)c2ccc3ncc(C4=CCN(C(=O)OC(C)(C)C)CC4)nc3c2)c1 [Compound 178] | <5 | 5.13 | 6.07 | > 10000 |
| COc1cc(OC)cc(N(CCNC(C)C)c2ccc3ncc(C(=O)N4CCN(C)CC4)nc3c2)c1 [Compound 179] | <5 | 204 | 5.62 | > 10000 |
| COc1cc(OC)cc(N(CCNC(C)C)c2ccc3ncc(C(=O)N4CCCCC4)nc3c2)c1 [Compound 180] | <5 | 229 | 5.51 | > 10000 |
| COc1cc(OC)cc(N(CCNC(C)C)c2ccc3ncc(C(=O)NCCCN4CCCCC4)nc3c2)c1 [Compound 182] | <5 | 19.5 | 5.89 | > 10000 |

The next lines start with results.

| BAF3-FLT3 (MIN IL3) 384 well pIC50 [1] | IC50 (FGFR1 (h)) [nM] | BAF3-FGFR 1 (MIN IL3) 384 well pIC50 [2] | SMILES | IC50 [3] [nM] |
| --- | --- | --- | --- | --- |
| <5 | 5.89 | 5.42 | COc1cc(OC)cc(N(CCNC(C)C)c2ccc3ncc(NCC4CCNCC4)nc3c2)c1 [Compound 161] | > 10000 |
| 5.32 | 7.41 | 6.15 | COc1cc(OC)cc(N(CCO)c2ccc3ncc(-c4ccc(N5CCN(C)CC5)nc4)nc3c2)c1 [Compound 163] | ~10000 |
| <5 | 8.71 | 6.37 | COc1cc(OC)cc(N(CCN2CCOCC2)c2ccc3ncc(-c4ccc(N)nc4)nc3c2)c1 [Compound 169] | > 10000 |
| 5.47 | 0.813 | 6.04 | COc1cc(OC)cc(N(CCNC(C)C)c2ccc3ncc(-c4ccc(N5CCN(C)CC5)nc4)nc3c2)c1 [Compound 170] | 3550 |
| <5 | 603 | <5 | COc1cc(OC)cc(N(CCO)c2ccc3ncc(/C(C)=N/OC(C)(C)C)nc3c2)c1 [Compound 171] | > 10000 |
| <5 | 295 | 5.44 | COc1cc(OC)cc(N(CCNC(C)C)c2ccc3ncc(C(=O)N4CCOCC4)nc3c2)c1 [Compound 181] | > 10000 |
| 5.04 | 155 | 6.76 | COc1cc(OC)cc(N(CC#Cc2ncccc2OC)c2ccc3ncc(-c4cccnc4)nc3c2)c1 [Compound 183] | > 10000 |
| <5 | 141 | 5.28 | COc1cc(OC)cc(N(CCO)c2ccc3ncc(C(=O)Nc4cnn(C)c4)nc3c2)c1 [Compound 184] | > 10000 |
| <5 | 316 | <5 | COc1cc(OC)cc(N(CCO)c2ccc3ncc(C4CCN(C(=O)OC(C)(C)C)CC4)nc3c2)c1 [Compound 185] | > 10000 |
| <5 | 44.7 | 5.98 | COc1cc(OC)cc(N(CCCO)c2ccc3ncc(-c4ccnc(C(=O)NCCOCCO)c4)nc3c2)c1 [Compound 186] | > 10000 |
